# Results published in PubChem BioAssay AID256 (DTP/NCI, 2004).
# Several values for one entry are separate records, joined by “and”; a condition that tells them apart may be missing. Identical values can stand only once. Inconclusive results and toxic doses are left out.
# Tested on: CD2F1 mice, L1210 leukemia ip, survival T/C
# Experiment: NCI In Vivo Anticancer Drug Screen. Data for tumor model L1210 Leukemia (intraperitoneal) in CD2F1 (CDF1) mice
# Details: higher = longer survival
# Outline: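 Ratio T/C, where T is the treated-group value and C the vehicle-dosed control value, from mice implanted with a transplantable tumor.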
# [1] = endpoint: mean survival time, dose: 12.5 mg/kg/injection, schedule: Q01DX009 (ip), vehicle: water
# [2] = endpoint: mean survival time, dose: 25.0 mg/kg/injection, schedule: Q01DX009 (ip), vehicle: water
# [3] = endpoint: mean survival time, dose: 200.0 mg/kg/injection, schedule: Q04DX002 (ip), vehicle: saline with Tween-80
# [4] = endpoint: mean survival time, dose: 100.0 mg/kg/injection, schedule: Q01DX009 (ip), vehicle: saline with Tween-80
# [5] = endpoint: mean survival time, dose: 200.0 mg/kg/injection, schedule: Q01DX009 (ip), vehicle: saline with Tween-80
# [6] = endpoint: mean survival time, dose: 400.0 mg/kg/injection, schedule: Q01DX009 (ip), vehicle: saline with Tween-80
# [7] = endpoint: mean survival time, dose: 100.0 mg/kg/injection, schedule: Q04DX003 (ip), vehicle: saline with Tween-80
# [8] = endpoint: mean survival time, dose: 200.0 mg/kg/injection, schedule: Q04DX003 (ip), vehicle: saline with Tween-80
# [9] = endpoint: mean survival time, dose: 100.0 mg/kg/injection, schedule: Q01DX001 (ip), vehicle: saline with Tween-80
# [10] = endpoint: mean survival time, dose: 200.0 mg/kg/injection, schedule: Q01DX001 (ip), vehicle: saline with Tween-80
# [11] = endpoint: mean survival time, dose: 400.0 mg/kg/injection, schedule: Q01DX001 (ip), vehicle: saline with Tween-80
structure (smiles),measurement,setting,value
NC(=O)c1ncn(C2OCC(O)C(O)C2O)c1N (configuration not stated),T/C,"endpoint: mean survival time, dose: 12.5 mg/kg/injection, schedule: Q01DX005 (ip), vehicle: water",87 % of control and 95 % of control
same,T/C,"endpoint: mean survival time, dose: 25.0 mg/kg/injection, schedule: Q01DX005 (ip), vehicle: water",90 % of control and 93 % of control
same,T/C,"endpoint: mean survival time, dose: 50.0 mg/kg/injection, schedule: Q01DX005 (ip), vehicle: water",92 % of control
same,T/C,"endpoint: mean survival time, dose: 100.0 mg/kg/injection, schedule: Q01DX005 (ip), vehicle: water",98 % of control
same,T/C,"endpoint: mean survival time, dose: 200.0 mg/kg/injection, schedule: Q01DX005 (ip), vehicle: water",98 % of control and 95 % of control
same,T/C,"endpoint: median survival time, dose: 12.5 mg/kg/injection, schedule: Q01DX005 (ip), vehicle: water",96 % of control
same,T/C,"endpoint: median survival time, dose: 25.0 mg/kg/injection, schedule: Q01DX005 (ip), vehicle: water",106 % of control
same,T/C,"endpoint: median survival time, dose: 50.0 mg/kg/injection, schedule: Q01DX005 (ip), vehicle: water",102 % of control
same,T/C,"endpoint: median survival time, dose: 100.0 mg/kg/injection, schedule: Q01DX005 (ip), vehicle: water",98 % of control
same,T/C,"endpoint: median survival time, dose: 200.0 mg/kg/injection, schedule: Q01DX005 (ip), vehicle: water",108 % of control
CCCCCCCCCCCCCCCC(=O)N(CCC#N)C(C)(C)CCC(C)(C)N(CCC#N)C(=O)CCCCCCCCCCCCCCC,T/C,"endpoint: mean survival time, dose: 25.0 mg/kg/injection, schedule: Q01DX009 (ip), vehicle: Klucel (hydroxypropylcellulose) (HPC)",95 % of control
same,T/C,"endpoint: mean survival time, dose: 50.0 mg/kg/injection, schedule: Q01DX009 (ip), vehicle: Klucel (hydroxypropylcellulose) (HPC)",95 % of control
same,T/C,"endpoint: mean survival time, dose: 100.0 mg/kg/injection, schedule: Q01DX009 (ip), vehicle: Klucel (hydroxypropylcellulose) (HPC)",88 % of control
same,T/C,"endpoint: mean survival time, dose: 200.0 mg/kg/injection, schedule: Q01DX009 (ip), vehicle: Klucel (hydroxypropylcellulose) (HPC)",88 % of control
COC(=O)C1=NNC(C(=O)OC)=NN1,T/C,[1],95 % of control
same,T/C,[2],95 % of control
same,T/C,"endpoint: mean survival time, dose: 50.0 mg/kg/injection, schedule: Q01DX009 (ip), vehicle: water",98 % of control
same,T/C,"endpoint: mean survival time, dose: 100.0 mg/kg/injection, schedule: Q01DX009 (ip), vehicle: water",105 % of control
same,T/C,"endpoint: mean survival time, dose: 200.0 mg/kg/injection, schedule: Q01DX009 (ip), vehicle: water",90 % of control
CC(C)NC(=O)C1CC2c3cccc4[nH]c(Br)c(c34)CC2N(C)C1 (configuration not stated),T/C,"endpoint: mean survival time, dose: 5.0 mg/kg/injection, schedule: Q01DX009 (ip), vehicle: saline with Tween-80",90 % of control
same,T/C,"endpoint: mean survival time, dose: 10.0 mg/kg/injection, schedule: Q01DX009 (ip), vehicle: saline with Tween-80",104 % of control
same,T/C,"endpoint: mean survival time, dose: 20.0 mg/kg/injection, schedule: Q01DX009 (ip), vehicle: saline with Tween-80",94 % of control
C/C(=C\CC(=O)C/C=C(\C)CCCC(C)CCCC(C)CCCC(C)C)CCCC(C)CCCC(C)CCCC(C)C (configuration not stated),T/C,"endpoint: mean survival time, dose: 100.0 mg/kg/injection, schedule: Q04DX002 (ip), vehicle: saline with Tween-80",103 % of control
same,T/C,[3],103 % of control
same,T/C,"endpoint: mean survival time, dose: 400.0 mg/kg/injection, schedule: Q04DX002 (ip), vehicle: saline with Tween-80",96 % of control
O.O=S(=O)(O)O.[Co+3].[NH2-].[NH2-].[NH2-].[NH2-].[NH2-],T/C,[3],123 % of control
COc1ccc(CC(=O)O)cc1OC,T/C,[4],94 % of control
same,T/C,[5],103 % of control
same,T/C,[6],89 % of control
C(=C\CN1CCOCC1)/CN1CCOCC1,T/C,"endpoint: mean survival time, dose: 100.0 mg/kg/injection, schedule: Q01DX009 (ip), vehicle: saline",91 % of control
same,T/C,"endpoint: mean survival time, dose: 200.0 mg/kg/injection, schedule: Q01DX009 (ip), vehicle: saline",97 % of control
same,T/C,"endpoint: mean survival time, dose: 400.0 mg/kg/injection, schedule: Q01DX009 (ip), vehicle: saline",97 % of control
O=[N+]([O-])c1ccc(CSCc2ccc([N+](=O)[O-])cc2)cc1,T/C,"endpoint: mean survival time, dose: 50.0 mg/kg/injection, schedule: Q04DX003 (ip), vehicle: Klucel (hydroxypropylcellulose) (HPC)",98 % of control
same,T/C,"endpoint: mean survival time, dose: 100.0 mg/kg/injection, schedule: Q04DX003 (ip), vehicle: Klucel (hydroxypropylcellulose) (HPC)",92 % of control
same,T/C,"endpoint: mean survival time, dose: 200.0 mg/kg/injection, schedule: Q04DX003 (ip), vehicle: Klucel (hydroxypropylcellulose) (HPC)",97 % of control
CC(C)(C)OC(=O)NC(C(=O)O)C1=CCC=CC1 (configuration not stated),T/C,"endpoint: mean survival time, dose: 25.0 mg/kg/injection, schedule: Q01DX009 (ip), vehicle: other",100 % of control
same,T/C,"endpoint: mean survival time, dose: 50.0 mg/kg/injection, schedule: Q01DX009 (ip), vehicle: other",96 % of control
same,T/C,"endpoint: mean survival time, dose: 50.0 mg/kg/injection, schedule: Q04DX002 (ip), vehicle: other",101 % of control
same,T/C,"endpoint: mean survival time, dose: 50.0 mg/kg/injection, schedule: Q04DX003 (ip), vehicle: other",103 % of control
same,T/C,"endpoint: mean survival time, dose: 100.0 mg/kg/injection, schedule: Q01DX001 (ip), vehicle: other",106 % of control
same,T/C,"endpoint: mean survival time, dose: 100.0 mg/kg/injection, schedule: Q01DX009 (ip), vehicle: other",91 % of control
same,T/C,"endpoint: mean survival time, dose: 100.0 mg/kg/injection, schedule: Q04DX002 (ip), vehicle: other",101 % of control
same,T/C,"endpoint: mean survival time, dose: 100.0 mg/kg/injection, schedule: Q04DX003 (ip), vehicle: other",106 % of control
same,T/C,"endpoint: mean survival time, dose: 200.0 mg/kg/injection, schedule: Q01DX001 (ip), vehicle: other",99 % of control
same,T/C,"endpoint: mean survival time, dose: 200.0 mg/kg/injection, schedule: Q01DX009 (ip), vehicle: other",91 % of control
same,T/C,"endpoint: mean survival time, dose: 200.0 mg/kg/injection, schedule: Q04DX002 (ip), vehicle: other",94 % of control
same,T/C,"endpoint: mean survival time, dose: 200.0 mg/kg/injection, schedule: Q04DX003 (ip), vehicle: other",97 % of control
same,T/C,"endpoint: mean survival time, dose: 400.0 mg/kg/injection, schedule: Q01DX001 (ip), vehicle: other",99 % of control
same,T/C,"endpoint: mean survival time, dose: 400.0 mg/kg/injection, schedule: Q04DX002 (ip), vehicle: other",101 % of control
same,T/C,"endpoint: mean survival time, dose: 400.0 mg/kg/injection, schedule: Q04DX003 (ip), vehicle: other",97 % of control
same,T/C,"endpoint: mean survival time, dose: 600.0 mg/kg/injection, schedule: Q01DX001 (ip), vehicle: other",96 % of control
COC1C(O)C(C)OC(OC2CC(O)C3(C)C(CCC4C3CCC3(C)C(C5=CC(=O)OC5)CCC43O)C2)C1O (configuration not stated) (tested in a mixture with another compound),T/C,"endpoint: mean survival time, dose: 50.0 mg/kg/injection, schedule: Q01DX001 (ip), vehicle: saline sonified",87 % of control
CC(O)C(=O)NN (configuration not stated),T/C,[4],112 % of control
same,T/C,[5],116 % of control
same,T/C,[6],93 % of control
CNC(=O)c1ccc2ccccc2c1,T/C,"endpoint: mean survival time, dose: 50.0 mg/kg/injection, schedule: Q01DX001 (ip), vehicle: saline",106 % of control
same,T/C,"endpoint: mean survival time, dose: 100.0 mg/kg/injection, schedule: Q01DX001 (ip), vehicle: saline",95 % of control
same,T/C,"endpoint: mean survival time, dose: 200.0 mg/kg/injection, schedule: Q01DX001 (ip), vehicle: saline",93 % of control
same,T/C,"endpoint: mean survival time, dose: 400.0 mg/kg/injection, schedule: Q01DX001 (ip), vehicle: saline",95 % of control
O=c1c(Cl)c2cc3c(cc2c2ccccc12)nc1ccccc1n3Cc1ccc([N+](=O)[O-])cc1,T/C,"endpoint: mean survival time, dose: 100.0 mg/kg/injection, schedule: Q04DX003 (ip), vehicle: saline",95 % of control
same,T/C,"endpoint: mean survival time, dose: 200.0 mg/kg/injection, schedule: Q04DX003 (ip), vehicle: saline",106 % of control
same,T/C,"endpoint: mean survival time, dose: 400.0 mg/kg/injection, schedule: Q04DX003 (ip), vehicle: saline",91 % of control
O=C(C=C(C(F)(F)F)C(F)(F)F)c1cccc([N+](=O)[O-])c1,T/C,"endpoint: mean survival time, dose: 12.5 mg/kg/injection, schedule: Q04DX003 (ip), vehicle: saline with Tween-80",103 % of control
same,T/C,"endpoint: mean survival time, dose: 25.0 mg/kg/injection, schedule: Q04DX003 (ip), vehicle: saline with Tween-80",96 % of control
CC1=NN(c2ccccc2)C(=O)CC1,T/C,[7],101 % of control
same,T/C,[8],101 % of control
same,T/C,"endpoint: mean survival time, dose: 400.0 mg/kg/injection, schedule: Q04DX003 (ip), vehicle: saline with Tween-80",103 % of control
O=C1C=C(c2ccccc2)CC1,T/C,"endpoint: mean survival time, dose: 50.0 mg/kg/injection, schedule: Q01DX009 (ip), vehicle: saline with Tween-80",104 % of control
same,T/C,[4],93 % of control
same,T/C,[7],101 % of control
same,T/C,[8],100 % of control
C/C=C/c1cnc(N)nc1-c1ccc(OC)cc1,T/C,[9],97 % of control
same,T/C,[10],94 % of control
same,T/C,[11],97 % of control
CCOc1ccccc1Nc1cc(=O)[nH]c(=O)[nH]1,T/C,[9],100 % of control
same,T/C,[10],97 % of control
same,T/C,[11],92 % of control
Cn1ccc(=Nc2ccc(NC(=O)c3ccc(N=c4ccn(C)c5ccc([N+](=O)[O-])cc45)cc3)cc2)cc1,T/C,"endpoint: mean survival time, dose: 1.56 mg/kg/injection, schedule: Q01DX009 (ip), vehicle: water",106 % of control
same,T/C,"endpoint: mean survival time, dose: 3.13 mg/kg/injection, schedule: Q01DX009 (ip), vehicle: water",112 % of control
same,T/C,"endpoint: mean survival time, dose: 6.25 mg/kg/injection, schedule: Q01DX009 (ip), vehicle: water",124 % of control
same,T/C,[1],181 % of control
same,T/C,[2],227 % of control
